Reference: US20210161880A1, “METHODS FOR TREATING DEMENTIA RELATED PSYCHOSIS” (ACADIA Pharmaceuticals Inc., priority 2019, published 2021)

What was measured:
Type in all cases: in vivo, human
[1] = test system: patients with dementia related psychosis; assay: Safety and tolerability (MMSE, long-term tolerability)
Method: Safety and tolerability of pimavanserin was also evaluated compared to placebo in patients with dementia related psychosis who have been stabilized on pimavanserin therapy. Safety endpoints were: treatment-emergent adverse events (TEAEs); serious adverse events (SAEs); withdrawals due to adverse events (AEs); clinically important changes in other safety assessments; Global Clinician Assessment of Suicidality (GCAS) score; Mini-Mental State Examination (MMSE) score; and Extrapyramidal Symptom Rating Scale (ESRS) score.

[2] = test system: patients with dementia related psychosis; assay: Double-blind, placebo-controlled period: relapse and all-cause discontinuation; settings: for Hazard Ratio, relapse / Odds ratio, relapse: vs placebo
Method: (§1) A double-blind, placebo-controlled study of the efficacy and safety of pimavanserin was conducted to evaluate relapse prevention in patients with dementia related psychosis. The primary endpoint of this study was time from randomization to relapse in the double-blind period. The secondary endpoint of this study was time from randomization to discontinuation from the double-blind period for any reason.
(§2) The study consisted of a screening period of up to 4 weeks (3-28 days); an open-label period of 12 weeks; a double-blind period of up to 26 weeks; and an approximately 4-week safety follow-up period.
Randomization occurred at the double-blind Baseline visit (Week 12). Patients were randomly assigned 1:1 to continue their pimavanserin dose (34 mg or 20 mg) or matching placebo. Randomization was stratified by most likely dementia subtype or most prominent cause of dementia (Alzheimer's disease or frontotemporal dementia spectrum disorders, vascular dementia, or Parkinson's disease dementia or dementia with Lewy bodies) and by region.
Relapse criteria were assessed weekly for the first 2 weeks after randomization (Weeks 13 and 14), every 2 weeks until Week 26, and every 4 weeks through Week 38. Relapse criteria was also evaluated at unscheduled visits. Any patients who met any of the relapse criteria after randomization were withdrawn from study drug and entered the safety follow-up period of the study.

[3] = test system: patients with dementia related psychosis; assay: Open-label period of relapse prevention study of pimavanserin; settings: for patients meeting response criteria: ≥30% reduction on SAPS-H+D total score and CGI-I score of 1 or 2
Method: as §1
Male or female patients ≥50 and ≤90 years of age were eligible if they met the criteria for All-cause Dementia according to NIA-AA guidelines. Eligible patients met the clinical criteria for one of the following disorders, with or without cerebrovascular disease (CVD): Dementia associated with Parkinson's disease; Dementia with Lewy bodies; Possible or probable Alzheimer's disease; Frontotemporal degeneration spectrum disorders, including possible or probable behavioral variant frontotemporal dementia, progressive supranuclear palsy, or corticobasal degeneration; or Vascular dementia, including post-stroke dementia, multi-infarct dementia and/or subcortical ischemic vascular dementia (SIVD). […] In addition, eligible patients had all of the following scores at Visit 1 (Screening) and Visit 2 (open-label Baseline): SAPS-H+D total score ≥10; CGI-S ≥4 (moderately ill); and SAPS-H+D global item (H7 or D13) score ≥4 (marked). Patients with a known personal or family history or symptoms of long QT syndrome were excluded.
as §2
During the open-label period, patients started pimavanserin 34 mg once daily (QD) by mouth beginning at Week 0 (open-label Baseline). Pimavanserin was continued daily at this dose level for at least the first week of treatment. After the first week, if the patient was unable to tolerate the 34 mg dose, the dose was decreased to 20 mg (provided as two 10 mg tablets) at any study visit (scheduled or unscheduled) until Week 4 (Visit 4). If the dose was decreased to 20 mg it may later be increased to 34 mg based on investigator judgment at any study visit (scheduled or unscheduled) until Week 4 (Visit 4). After Week 4 (Visit 4), the dose of study drug remained fixed at either 34 mg or 20 mg once daily.
The response criteria was ≥30% reduction from open-label baseline on SAPS-H+D total score and CGI-I score of 1 or 2. Analysis was restricted to eligible patients at the visit. A patient was eligible for the visit if the number of days between minimum (study discontinuation date, end of treatment date) and the first open-label dose exceeded the lower limit of the analysis visit window for the visit.

[4] = open-label period, Overall N = 351

SMILES: CC(C)COc1ccc(CNC(=O)N(Cc2ccc(F)cc2)C2CCN(C)CC2)cc1 [pimavanserin, N-(4-Fluorophenylmethyl)-N-(1-methylpiperidin-4-yl)-N′-(4-(2-methylpropyloxy)phenylmethyl)carbamide]
- tolerability ([1]; 34 mg, given long term in the elderly population): well tolerated
- impact on cognition (MMSE) ([1]; over 9 months of treatment, FIG. 8): no negative impact
- Incidence of relapse, (%) ([2]; AD): 13.1%
- Incidence of relapse, n/N ([2]; AD): 8/61
- Hazard Ratio, relapse ([2]; AD): 0.618
- Odds ratio, relapse ([2]; AD): 0.5175
- Hazard Ratio (Pimavanserin/Placebo), relapse ([2]; Cox regression, 95% CI (0.172, 0.727), one-sided p 0.0023): 0.353
- Hazard Ratio (Pimavanserin/Placebo), all-cause discontinuation ([2]; Cox regression, 95% CI (0.261, 0.785), one-sided p 0.0024): 0.452
- Incidence of relapse, (%) ([2]; DLB): 0.0%
- Incidence of relapse, n/N ([2]; DLB): 0/6
- Incidence of relapse, (%) ([2]; FTD): 100%
- Incidence of relapse, n/N ([2]; FTD): 1/1
- Incidence of relapse, (%) ([2]; Overall): 12.6%
- Incidence of relapse, n/N ([2]; Overall): 12/95
- Hazard Ratio, relapse ([2]; Overall): 0.353
- Odds ratio, relapse ([2]; Overall): 0.3666
- Incidence of relapse, (%) ([2]; PDD): 6.7%
- Incidence of relapse, n/N ([2]; PDD): 1/15
- Hazard Ratio, relapse ([2]; PDD): 0.054
- Odds ratio, relapse ([2]; PDD): 0.0714
- Incidence of relapse, (%) ([2]; VaD): 16.7%
- Incidence of relapse, n/N ([2]; VaD): 2/12
- Hazard Ratio, relapse ([2]; VaD): 1.065
- Odds ratio, relapse ([2]; VaD): 1.00
- reduction of risk of relapse of dementia related psychosis (psychotic exacerbation) compared to placebo ([2]; double-blind period, FIG. 6): 2.8 times
- reduction of risk of all-cause discontinuation compared to placebo ([2]; double-blind period, FIG. 7): 2.2 ×
- Completed Week 26 Without a Relapse, (%) ([2]; double-blind period, N = 95): 38.9%
- Number of Patients Discontinued for Any Reason, (%) ([2]; double-blind period, N = 95): 22.1%
- Number of Patients Having a Relapse Event, (%) ([2]; double-blind period, N = 95): 12.6%
- patients on placebo more likely to drop out of the trial for any reason ([2]; placebo vs pimavanserin): 2.2 times
- psychosis (total SAPS-H+D change), exploratory analysis ([3]; across subtypes of dementia, baseline MMSE, baseline dementia severity, FIGS. 4A-C): substantially reduced psychosis
- patients meeting response criteria ([3]; by Week 4, FIG. 2A): about 50%
- patients meeting response criteria ([3]; by Week 8, FIG. 2B): about 70%
- total SAPS-H+D reduction in change from open-label baseline ([3]; by Week 12, FIG. 1): 75.2%
- CGI-S score reduction from baseline ([3]; by Week 12, overall population and across subtypes of dementia, FIG. 5A, 5B): about 2
- response rate across subgroups ([3]; dementia subtypes, baseline MMSE, age, psychosis severity, FIG. 2C-2F): consistently high response rate
- patients demonstrating sustained response ([3]; open label period): > 60%
- Early Termination: Adverse Event, (%) ([3]; open-label period, AD N = 229): (7.9) %
- Early Termination: Lack of Response in Open Label, (%) ([3]; open-label period, AD N = 229): (20.1) %
- Randomized to Double-blind Period, (%) ([3]; open-label period, AD N = 229): (59.8) %
- Early Termination: Adverse Event, (%) ([3]; open-label period, DLB N = 22): (4.5) %
- Early Termination: Lack of Response in Open Label, (%) ([3]; open-label period, DLB N = 22): (40.9) %
- Randomized to Double-blind Period, (%) ([3]; open-label period, DLB N = 22): (45.5) %
- Early Termination: Adverse Event, (%) ([3]; open-label period, FTD N = 6): (16.7) %
- Early Termination: Lack of Response in Open Label, (%) ([3]; open-label period, FTD N = 6): (33.3) %
- Randomized to Double-blind Period, (%) ([3]; open-label period, FTD N = 6): (50) %
- Early Termination: Adverse Event, (%) [3, 4]: (7.7) %
- Early Termination: Adverse Event, Number [3, 4]: 27
- Early Termination: Death, (%) [3, 4]: (0.3) %
- Early Termination: Death, Number [3, 4]: 1
- Early Termination: Lack of Response in Open Label, (%) [3, 4]: (19.9) %
- Early Termination: Lack of Response in Open Label, Number [3, 4]: 70
- Randomized to Double-blind Period, (%) [3, 4]: (61.8) %
- Randomized to Double-blind Period, Number [3, 4]: 217
- Early Termination: Adverse Event, (%) ([3]; open-label period, PDD N = 59): (6.8) %
- Early Termination: Death, (%) ([3]; open-label period, PDD N = 59): (1.7) %
- Early Termination: Lack of Response in Open Label, (%) ([3]; open-label period, PDD N = 59): (15.3) %
- Randomized to Double-blind Period, (%) ([3]; open-label period, PDD N = 59): (71.2) %
- Early Termination: Adverse Event, (%) ([3]; open-label period, VaD N = 35): (8.6) %
- Early Termination: Lack of Response in Open Label, (%) ([3]; open-label period, VaD N = 35): (11.4) %
- Randomized to Double-blind Period, (%) ([3]; open-label period, VaD N = 35): (71.4) %
